From patent US20260355180A1, “COMPOSITIONS AND METHODS FOR SPLICEOSOME-TARGETED THERAPIES” (Institute for Cancer Research d/b/a The Research Institute …, priority 2022, published 2026)
Entries after “also recorded” stand apart in the source; their conditions may differ.

Tested on: MEF Flag-ZBP1 cells
Test: pMLKL western blot / necroptosis, MEF Flag-ZBP1
Type: cell-based, mouse
Settings: 2.5 nM PlaB, 18 hours, MEF Flag-ZBP1 (full-length ZBP1)
Description: FIG. 5A-5E: SF3B1 perturbation upregulates A-RNA and Z-nucleic acids in MEFs. (FIG. 5A) 5 nM of PlaB induces A-RNA and Z-Nucleic acids in ΔZBP1 MEF cells. (FIG. 5B) Quantification of A-RNA and Z-Nucleic acids. […] Plots of signal intensity are mean±SEM, two-tailed unpaired Student's t test *p<0.05, ***p<0.001, ****p<0.0001. 18 hours of PlaB treatment for IF, WB and rescue experiments. IF: 5 nM PlaB, WB and rescue experiments: 2.5 nM PlaB.
Since induction of Z-nAs can result in ZBP1-dependent necroptosis, we analyzed induction of necroptosis in necroptotic competent MEFs using spliceosome inhibition. […] We also determined that MEFs ΔZBP1, WT, and Flag-ZBP1 cells treated with PlaB began dying within 24hours after treatment. With MEF Flag-ZBP1 cells showing only 20% survival after 24 hours (FIG. 16).

For CCC(O)C(C)C1OC1CC(C)C=CC=C(C)C1OC(=O)CC(O)CCC(C)(O)C(OC(C)=O)C=CC1C (stereo not shown) [PlaB, Pladienolide B], the “pMLKL (necroptosis)” value was “triggered pMLKL; also recorded: induction of pMLKL”.
